The test system of data set [1] is progressive, locally metastatic melanoma. Kind of data set: Intralesional DNCB injections into melanoma satellite / in transit metastatic lesions, case reports of three patients. Format: in vivo, human. The source says:
Following are the case reports of three long term (over ten year) survivors treated with intralesional DNCB in the setting of what was apparently uncontrollable, progressive, locally metastatic melanoma, ordinarily lethal as a result of subsequent progressive metastatic disease to the liver, lungs and/or brain.
Patient #1 was […] when they presented for treatment with progressive satellitosis and in transit metastases in their right leg. Four years previously they had undergone elsewhere a wide excision and split thickness skin grafting for a Clark Level IV melanoma of their right calf. […] One month prior to their presentation with satellitosis, recurrence had been noticed in the skin of the right popliteal fossa, and slightly higher. Their surgeon had planned to do a local excision in the region but had desisted when, at the time of their skin incision, multiple metastatic deposits were grossly visible in the deep dermal and subcutaneous regions. […] Two weeks after presentation, at the time of their first round of intralesional injections, the patient was noted to have 14 metastatic lesions in the posterior thigh region. These were each infiltrated with xylocaine and injected with DNCB. Each lesion was individually marked and followed. It was later estimated that 13 of the 14 lesions injected on this round ultimately regressed. A month after the first round of injections the patient underwent a second round of injections into five lesions on the posterior thigh. Four weeks after their second round of injections, a third round of injections was carried out for 10 lesions which had newly appeared. […] Accordingly the patient was taken to the operating room and an excision was carried out. […]
Patient #3 was […] when they saw their local physician in upstate New York because of a pigmented posterior scalp lesion. Biopsy at that time was originally read as a (benign) blue nevus. […] The reoccurance led to a rebiopsy, now one year after the original biopsy which had been read as benign. […]

Data set [2] is described as follows: Side effects of intralesional DNCB injections in the case reports. In kind it is in vivo, human. From the text:
Patient #3 was […] when they saw their local physician in upstate New York because of a pigmented posterior scalp lesion. Biopsy at that time was originally read as a (benign) blue nevus. The diagnosis was later felt to be incorrect after a recurrent lesion at the same location continued to advance, becoming larger and bleeding when they combed their hair. The reoccurance led to a rebiopsy, now one year after the original biopsy which had been read as benign. […] A re-review of the slides from the first biopsy was then carried out. […] The patient was referred to the Memorial Sloane Kettering Hospital in New York City and was prepared for urgent wide excision and skin grafting of their posterior scalp lesions. […] The operative procedure was cancelled and the patient was referred. At the time of presentation initial radiographic evaluation for distant disease was negative. They received intralesional DNCB injections of between two and 10 satellite lesions every 4-6 weeks. On several occasions histologic or fine needle aspiration biopsy was carried out to continue to confirm the malignant nature of the lesions before intralesional injection. Biopsies were also carried out in order to confirm the absence of malignant cells in some post-injection inflammatory sites. […] Four months after their presentation, they were noted to have fewer than usual malignant lesions for injection, and received only 2 DNCB injections. However 1 month later they underwent 10 DNCB injections. One month after that they underwent DNCB injections of 8 malignant scalp lesions. Another month later they underwent intralesional DNCB injection of 10 malignant satellite scalp lesions. One and two months later they underwent DNCB injection of 8 lesions on each of the two visits. Five weeks later and 5 weeks after that, 2 lesions were injected on each visit. Chest xray and distant metastatic evaluations remained negative. The injection sites were being routinely pre-anesthetized with 0.5% lidocaine injections containing 1:100,000 epinephrine a few minutes before the injections with DNCB in acetone. Nevertheless the DNCB injection sites were uncomfortable for 4-6 hours after the lidocaine wore off, frequently with slight residual “soreness” the next day. Their last-mentioned round of two injections took place 11 months after the beginning of their injections. No new lesions were apparent for the next 2 months. The patient reported that after this last mentioned round of two injections, there was residual scalp discomfort for 8 days. […] Their strength and activity remained normal, including frequent vigorous dancing with their spouse. They often brought photographs of their scalp taken between visits. They occasionally reported sensations in uninjected areas in the scalp, ear or mastoid regions. No new lesions were apparent for 2 months.
(§1) A drug mask and latex gloves should be used when working with the DNCB powder while preparing its dilution and preparation for injection. […] It should be noted that DNCB powder is irritating, and is also immunogenic because of its haptene like properties. […] Therefore preadministration of lidocaine or another injectable anesthetic should be used to infiltrate the tumor nodule injection site prior to the injection into the same site of the DNCB solution in acetone.

Data set [3] is described as follows: Solubility of DNCB powder in acetone. In kind it is physicochemical. To be noted: acetone diluent.
Source text: as §1

Data set [4] concerns metastatic cutaneous tumor nodules. To be noted: some 53 rounds of intralesional treatment, published data (3), cited from earlier work.

The text below walks through data of patent US10166290B2, “Intralesional (Intratumoral) dinitrochlorobenzene and associated compounds coadministered with checkpoint inhibitors for cancer treatment including treatment of metastatic cutaneous cancers” (priority 2017, dated 2019).

Like-named read-outs stand apart in the source and are kept apart here.

With `O=[N+]([O-])c1ccc(Cl)c([N+](=O)[O-])c1` [DNCB, 2, 4 dinitrochlorobenzene], the “time apparently disease free between last injections and death” value in data set [1] (Patient #1, after sixth round of injections) is listed as 30 years. Also, the “time patient remained well with no evidence of metastasis after end of injections” value in data set [1] (Patient #2) came out at 12 years. In addition, the “period with no apparent melanoma following last intralesional injection” value in data set [1] (Patient #3) came to 18 year. Moreover, in data set [2] (Patient #3), the “constitutional symptoms such as fatigue, fever, or malaise” value is reported as “no constitutional symptoms”. The “duration of injection site discomfort after the lidocaine wore off” value in data set [2] (Patient #3, DNCB in acetone, sites pre-anesthetized with 0.5% lidocaine) lay within 4 to 6 h. Besides, the “facial swelling after injections” value in data set [2] (Patient #3, after round of 3 lesions injected) is reported as “mild facial swelling for a few days”. In addition, the “duration of residual scalp discomfort” value in data set [2] (Patient #3, after round of two injections 11 months after beginning) turned out to be 8 days. Besides, the “local effect of the DNCB solution in acetone on injection” value in data set [2] (solution in acetone) is “irritating locally, and causes pain at the injection site”. The solubility in acetone entry in data set [3] is recorded as “ready solubility”. Further, the “side effects of intralesional treatment” value is “local, consisting of erythema or ulceration, not life-threatening, and not associated with any internal organ damage or defects” in data set [4]; “without the undesirable checkpoint inhibitor potential side effect of attacks against normal organs” in data set [4] (listed as dinitrochlorobenzene); “side effects essentially restricted to only side effects related to inflammation at the local injection sites” in data set [4] (listed as dinitrohalogenated compound).
